The source of these data is PubChem BioAssay (NCI).

Among the test systems are OVCAR-8 ovarian; UACC-62 melanoma; LOX IMVI melanoma; M19-MEL melanoma; NCI-H460 lung; U251 CNS; HCT-116 colon; SK-MEL-28 melanoma; CCRF-CEM leukemia.
What all share (assay): DTP human tumour cell line panel, 48 h

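These data come from cells grown in 96-well plates and exposed to compound for 48 hours at five concentrations. GI50 is the concentration that inhibits growth by half. TGI: concentration producing complete growth inhibition.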

With `CC(C(=O)O)/C(=C\c1ccc2c(c1)OCO2)C(=O)O` (configuration not stated), the TGI with OVCAR-8 ovarian, in the assay with UACC-62 melanoma, in the assay on LOX IMVI melanoma, in the assay on M19-MEL melanoma, with NCI-H460 lung and with U251 CNS was over 100 µM throughout. Further, the concentration for total growth inhibition (TGI) in the assay on HCT-116 colon and in the assay with SK-MEL-28 melanoma was over 100 µM each time.

`CC1(C)N=C(N)N=C(N)N1c1cccc(CCCCOc2ccccc2)c1`: the GI50 was 0.465 µM with OVCAR-8 ovarian; 0.0467 µM with UACC-62 melanoma; 0.0395 µM in the assay with LOX IMVI melanoma; 0.0414 µM with CCRF-CEM leukemia; under 0.01 µM in the assay on NCI-H460 lung; 0.0488 µM in the assay on U251 CNS. For the same molecule, the 50% growth inhibitory concentration (GI50) in the assay on HCT-116 colon was under 0.01 µM; with SK-MEL-28 melanoma it was 0.521 µM. The concentration for total growth inhibition (TGI) in the assay on OVCAR-8 ovarian was over 100 µM; with UACC-62 melanoma, 13.7 µM; with LOX IMVI melanoma, 14.7 µM; in the assay on CCRF-CEM leukemia it was 32.7 µM; in the assay on NCI-H460 lung, 12.4 µM; in the assay on U251 CNS, 55.7 µM. Moreover, the total growth inhibition concentration (TGI) in the assay with HCT-116 colon is over 100 µM; in the assay on SK-MEL-28 melanoma, 20.6 µM.

For `CC1OC(n2c3ccccc3c3c4c(c5c6ccccc6[nH]c5c32)C(=O)N(CCN2CCOCC2)C4=O)CC(O)C1O` (configuration not stated), the GI50 with OVCAR-8 ovarian was 2.74 µM; with UACC-62 melanoma it was 1.03 µM; with LOX IMVI melanoma, 0.962 µM; with CCRF-CEM leukemia it was 2.1 µM; with NCI-H460 lung, 0.734 µM; with U251 CNS, 1.24 µM. In addition, the GI50 was 1.33 µM in the assay on HCT-116 colon and 5.61 µM with SK-MEL-28 melanoma. Besides, the TGI in the assay on OVCAR-8 ovarian is 16.5 µM; with UACC-62 melanoma it was 6.06 µM; with LOX IMVI melanoma it was 6.12 µM; in the assay with CCRF-CEM leukemia it was 18.1 µM; in the assay with NCI-H460 lung, 5.27 µM; in the assay with U251 CNS, 7.19 µM. The total growth inhibition concentration (TGI) in the assay with HCT-116 colon is 6.92 µM; in the assay with SK-MEL-28 melanoma it was 13.8 µM.

As to `CC(=O)OC1Oc2cc(C)c(C)cc2-c2oc(=O)c(-c3ccc(F)cc3)cc21` (configuration not stated), the GI50 in the assay on OVCAR-8 ovarian is 6.67 µM; in the assay with UACC-62 melanoma, 3.92 µM; in the assay on LOX IMVI melanoma, 5.61 µM; in the assay on CCRF-CEM leukemia, 3.61 µM; in the assay with NCI-H460 lung, 3.9 µM; in the assay on U251 CNS, 4.06 µM. The GI50 with HCT-116 colon is 4.23 µM; with SK-MEL-28 melanoma, 6.89 µM. Besides, the TGI is over 100 µM in the assay with OVCAR-8 ovarian; 76.3 µM in the assay on UACC-62 melanoma; over 100 µM in the assay with LOX IMVI melanoma; 21.4 µM with CCRF-CEM leukemia; 24.4 µM in the assay with NCI-H460 lung; 45.6 µM in the assay on U251 CNS. Further, the total growth inhibition concentration (TGI) amounted to 46.2 µM with HCT-116 colon and 45.7 µM in the assay on SK-MEL-28 melanoma.

With `COc1ccc(OC)c(/C=C2\COc3ccc(O)c(O)c3C2=O)c1`, the GI50 in the assay with OVCAR-8 ovarian was 3.05 µM; in the assay with UACC-62 melanoma it was 1.79 µM; in the assay with LOX IMVI melanoma, 1.48 µM; in the assay with CCRF-CEM leukemia, 0.679 µM; in the assay on NCI-H460 lung, 2.07 µM; with U251 CNS, 2.21 µM. The GI50 was 1.82 µM with HCT-116 colon and 2.65 µM with SK-MEL-28 melanoma. Further, the TGI came to 27 µM in the assay with OVCAR-8 ovarian; 4.51 µM in the assay on UACC-62 melanoma; 3.02 µM in the assay with LOX IMVI melanoma; 34.4 µM in the assay with CCRF-CEM leukemia; 5.61 µM in the assay on NCI-H460 lung; 10.5 µM in the assay with U251 CNS. Further, the TGI was 4.13 µM in the assay with HCT-116 colon and 7.51 µM with SK-MEL-28 melanoma.

As to `NC(=O)CCC(NC(=O)Cc1ccccc1)C(=O)O` (configuration not stated) (tested in a mixture with another compound), the total growth inhibition concentration (TGI) in the assay on OVCAR-8 ovarian, with UACC-62 melanoma, with CCRF-CEM leukemia, with M19-MEL melanoma, in the assay on U251 CNS and with HCT-116 colon was over 8130 µM each time. The molecule further showed a concentration for total growth inhibition (TGI) with SK-MEL-28 melanoma of over 8130 µM.

Consider `COc1ccc2c(c1)/C(=C\c1c(Cl)n(C)c3ccccc13)C(=O)N2`, for which the GI50 in the assay on OVCAR-8 ovarian is 1.89 µM; with UACC-62 melanoma, 0.255 µM; in the assay with LOX IMVI melanoma, 0.83 µM; in the assay on CCRF-CEM leukemia, 3.53 µM; in the assay on NCI-H460 lung, 0.459 µM; with U251 CNS it was 0.817 µM. For the same molecule, the values for the GI50 with HCT-116 colon and in the assay with SK-MEL-28 melanoma were 1.29 µM and 13.5 µM, respectively. Besides, the concentration for total growth inhibition (TGI) was 11.9 µM with OVCAR-8 ovarian; 5.34 µM in the assay with UACC-62 melanoma; over 100 µM in the assay with LOX IMVI melanoma; over 100 µM in the assay on CCRF-CEM leukemia; 15.9 µM in the assay with NCI-H460 lung; 10.5 µM in the assay with U251 CNS. The figures for the TGI in the assay with HCT-116 colon and with SK-MEL-28 melanoma were over 28.6 µM and over 55.4 µM, respectively.

Take `CCN(CC)CCCC(Cc1ccccc1)Nc1c2ccc(Cl)cc2nc2ccc(OC)cc12` (configuration not stated): the GI50 was 2.34 µM in the assay with OVCAR-8 ovarian; 1.95 µM in the assay on UACC-62 melanoma; 1.6 µM in the assay on LOX IMVI melanoma; 2 µM in the assay on CCRF-CEM leukemia; 2.44 µM with NCI-H460 lung; 1.56 µM in the assay with U251 CNS. In addition, the figures for the GI50 in the assay with HCT-116 colon and in the assay on SK-MEL-28 melanoma were 1.95 µM and 1.84 µM, respectively. Besides, the TGI with OVCAR-8 ovarian was 5.26 µM; in the assay on UACC-62 melanoma, 3.64 µM; with LOX IMVI melanoma, 3.04 µM; in the assay with CCRF-CEM leukemia it was 6.51 µM; in the assay on NCI-H460 lung, 5.92 µM; with U251 CNS, 3.11 µM. In addition, the results for the TGI with HCT-116 colon and with SK-MEL-28 melanoma were 10.7 µM and 3.59 µM, respectively.

On to `O=S(=O)(CCNCc1ccc(-c2ccc3ncnc(Nc4ccc(OCc5cccc(F)c5)c(Cl)c4)c3c2)o1)c1ccccc1`, for which the GI50 was over 25 µM with OVCAR-8 ovarian; over 25 µM in the assay with UACC-62 melanoma; over 25 µM in the assay with LOX IMVI melanoma; over 23.1 µM in the assay on CCRF-CEM leukemia; over 25 µM in the assay on NCI-H460 lung; over 25 µM in the assay on U251 CNS. The GI50 with HCT-116 colon and in the assay with SK-MEL-28 melanoma was over 25 µM each time. Moreover, the TGI in the assay on OVCAR-8 ovarian, in the assay with UACC-62 melanoma, in the assay with LOX IMVI melanoma, with CCRF-CEM leukemia, in the assay on NCI-H460 lung and in the assay on U251 CNS was over 25 µM each time. Also, the TGI in the assay with HCT-116 colon and in the assay with SK-MEL-28 melanoma was over 25 µM each time.

Consider `Cc1cc(C)c2nc3nc(C)cc(C)c3c(N)c2c1`, for which the GI50 was 4.02 µM in the assay with OVCAR-8 ovarian; 4.83 µM in the assay on UACC-62 melanoma; 3.51 µM in the assay with LOX IMVI melanoma; 9.33 µM in the assay on CCRF-CEM leukemia; 3.15 µM in the assay with NCI-H460 lung; 4.3 µM in the assay on U251 CNS. Further, the GI50 in the assay with HCT-116 colon is 3.12 µM; in the assay with SK-MEL-28 melanoma, 12.6 µM. Moreover, the TGI in the assay with OVCAR-8 ovarian is over 100 µM; in the assay on UACC-62 melanoma, 18.9 µM; with LOX IMVI melanoma, 14.9 µM; in the assay on CCRF-CEM leukemia, 45.7 µM; in the assay with NCI-H460 lung, 11 µM; with U251 CNS, 26.1 µM. Moreover, the TGI in the assay with HCT-116 colon stood at 15 µM; in the assay with SK-MEL-28 melanoma, 27 µM.

As to `COc1cc(/C=C2\C(=O)N(c3ccccc3)c3ccccc32)cc(OC)c1OC`, the GI50 was 8.83 µM in the assay on OVCAR-8 ovarian; 7.12 µM in the assay on UACC-62 melanoma; 2.24 µM with LOX IMVI melanoma; 1.75 µM in the assay on CCRF-CEM leukemia; 3.82 µM with NCI-H460 lung; 3.87 µM with U251 CNS. Further, the GI50 in the assay with HCT-116 colon was 3.47 µM; with SK-MEL-28 melanoma, 4.91 µM. In addition, the total growth inhibition concentration (TGI) with OVCAR-8 ovarian is 45.5 µM; with UACC-62 melanoma it was 21.6 µM; in the assay with LOX IMVI melanoma, 4.61 µM; in the assay with CCRF-CEM leukemia, 7.78 µM; in the assay with NCI-H460 lung, over 100 µM; in the assay on U251 CNS, 15.3 µM. Also, the TGI in the assay on HCT-116 colon was 12.4 µM; in the assay with SK-MEL-28 melanoma, 18.4 µM.

For `O=C(Cc1ccccc1)NC(c1ccc(Cl)cc1)c1c(O)ccc2ccccc12` (configuration not stated), the GI50 in the assay with OVCAR-8 ovarian is 3.56 µM; with UACC-62 melanoma it was 2.25 µM; in the assay with LOX IMVI melanoma, 3.11 µM; with CCRF-CEM leukemia, 3.91 µM; with NCI-H460 lung, 2.66 µM; with U251 CNS it was 2.55 µM. Further, the GI50 in the assay on HCT-116 colon was 2.17 µM; in the assay with SK-MEL-28 melanoma, 3.16 µM. Also, the TGI was 16.9 µM in the assay on OVCAR-8 ovarian; 6.07 µM with UACC-62 melanoma; 9.71 µM with LOX IMVI melanoma; 26.7 µM with CCRF-CEM leukemia; 7.61 µM with NCI-H460 lung; 6.94 µM in the assay on U251 CNS. In addition, the total growth inhibition concentration (TGI) worked out at 5.16 µM in the assay with HCT-116 colon and 11.6 µM in the assay with SK-MEL-28 melanoma.

For the molecule `N=c1n(Cc2ccccc2)c(N)cc(=O)n1Cc1ccccc1`, the GI50 is 3.18 µM in the assay with OVCAR-8 ovarian; 3.55 µM in the assay on UACC-62 melanoma; 3.14 µM in the assay on LOX IMVI melanoma; 1.63 µM in the assay on CCRF-CEM leukemia; 1.08 µM with NCI-H460 lung; 3.32 µM in the assay with U251 CNS. Moreover, the GI50 is 2.74 µM in the assay with HCT-116 colon and 3.58 µM with SK-MEL-28 melanoma. Also, the TGI was found to be 11.4 µM with OVCAR-8 ovarian; 12 µM in the assay on UACC-62 melanoma; 10.9 µM with LOX IMVI melanoma; 8.65 µM in the assay on CCRF-CEM leukemia; 2.75 µM in the assay on NCI-H460 lung; 11.7 µM in the assay on U251 CNS. For the same molecule, the TGI with HCT-116 colon turned out to be 10.7 µM; with SK-MEL-28 melanoma, 11.7 µM.

Turning to `S=C(c1ccc2c(c1)OCO2)N1CCN(c2cccc(Cl)c2)CC1`, the GI50 with OVCAR-8 ovarian was 0.975 µM; with UACC-62 melanoma it was 0.429 µM; in the assay with LOX IMVI melanoma, 1.14 µM; in the assay on CCRF-CEM leukemia, 1.01 µM; in the assay on NCI-H460 lung it was 0.387 µM; in the assay on U251 CNS it was 0.61 µM. The GI50 is 0.454 µM in the assay on HCT-116 colon and 1.02 µM in the assay on SK-MEL-28 melanoma. For the same molecule, the total growth inhibition concentration (TGI) was 7.21 µM in the assay with OVCAR-8 ovarian; over 100 µM in the assay on UACC-62 melanoma; over 100 µM in the assay on LOX IMVI melanoma; over 21.9 µM with CCRF-CEM leukemia; over 74.7 µM in the assay on NCI-H460 lung; over 100 µM in the assay on U251 CNS. The results for the TGI in the assay with HCT-116 colon and with SK-MEL-28 melanoma were 14.5 µM and over 100 µM, respectively.
